Here are results for three compounds from patent US20030108893A1, “Method for establishing neurogically relevant properties of a material” (priority 1999, published 2003).

In series [1] the test system is threadworm (C. elegans). The series is described as follows: Neurotoxic substance administered to nematodes in liquid medium; behavior or morphology phenotype observed. As to conditions: for behavioral anomalies or changes in morphology after administration of neurotoxic compound: nematodes (threadworms), general finding. Format: in vivo, Caenorhabditis elegans. From the text: The response to the administration of neurotoxic substances which act on the central nervous system was investigated in nematodes of the genus Caenorhabditis and, in particular, in Caenorhabditis elegans. In this threadworm, a characteristic phenotype, which is expressed, for example, in movement disturbances, a reduced number of progeny or morphological changes,; is observed both in the larval stages L1, L2, L3 and L4 (see “The Nematode Caenorhabditis elegans”; Wood et al., Cold Spring Harbor Laboratory, 1988) and in the adult stage following incubation with a neurotoxic substance. This can be ascertained by observing the phenotype microscopically, by determining the number of progeny per animal and time period or by detecting nerve cells which have been labeled with particular dyes (e.g. GFP fusion proteins) and whose color changes after they have been acted upon by a neurotoxic substance.
(§1) Per assay, about 100 threadworm (C. elegans) test animals at a defined stage of development (e.g. L1 larval stage) were incubated in liquid medium at constant temperature (e.g. 20° C.). […]
This can be expressed in severe movement disturbances, a reduced number of progeny or morphological changes.

Series [2] relates to threadworm (C. elegans). The series is described as follows: Preincubation with test material before MPTP; reversion or prevention of the MPTP phenotype. Format: in vivo, Caenorhabditis elegans. As to conditions: 100 C. elegans; three days of preincubation with L-DOPA, MPTP added on the third day; observed on day 6 (Figure B).
Source text: It is possible to expose the nematodes to the materials to be investigated in a wide variety of ways. For example, it is possible to culture the animals in Petri dishes containing an agar which contains neurotoxic substances, on the one hand, and the substances of interest on the other. However, it is also possible to bathe the animals, in a simple manner, in the materials to be investigated. As well as being particularly simple, this variant also makes it possible to standardize the concentrations more easily and to achieve a higher throughput in a screening system. For an investigation, use is made of populations of the animals, which populations are then incubated with different solutions of the materials and at different concentrations. […] The observation, namely the reversion or prevention of the behavioral anomaly or the morphological change following neurotoxin treatment, makes it possible to draw a conclusion with regard to the possible activity and site of action of the material whose suitability as a drug is under investigation.
as §1

Consider `NCCc1cc(O)c(O)cc1O` [6-OHDA, 6-hydroxy-dopamine], for which the “behavioral anomalies or changes in morphology after administration of neurotoxic compound” value in the series on threadworm (C. elegans) [1] was “exhibit behavioral anomalies or changes in their morphology”.

In the case of `N[C@@H](Cc1ccc(O)c(O)c1)C(=O)O` [L-DOPA, L-3,4-dihydroxyphenylalanine], the “expression of the phenotype brought about by MPTP after incubation with test material” value in the series with threadworm (C. elegans) [2] was “the phenotype which is brought about by MPTP is not expressed”.

With `CN1CC=C(c2ccccc2)CC1` [MPTP, 1-methyl-4-phenyl-1,2,3,6-tetrahydropyridine], in the series on threadworm (C. elegans) [1] (about 100 C. elegans, e.g. L1 larval stage, liquid medium, e.g. 20° C., MPTP 16 to 500 μg/ml, observed e.g. on day 6 (Figure A)), the “characteristic phenotype (severe movement disturbances, reduced number of progeny or morphological changes)” value is “a characteristic phenotype was observed”. In the series with threadworm (C. elegans) [1], the “behavioral anomalies or changes in morphology after administration of neurotoxic compound” value was “exhibit behavioral anomalies or changes in their morphology”.
